Test results published in patent US20250387443A1, “ENHANCING ONCOLYTIC V[…] A COMBINATION OF NUCLEAR EXPORT INHIBITOR AND MYXOMA VIRUS […] DEATH PATHWAYS” (Arizona Board of Regents on behalf of Arizona State …, priority 2024, published 2025).

Columns and labels:
PANC-1 cells [1] = assay type: cell-based, human
[2] = tested on: human xenograft tumor models; experiment: MYXV replication in human xenograft tumor models; assay type: in vivo; conditions: human xenograft tumor models in NSG mice
Colo205 cells = assay type: cell-based, human
MDA-MB435 cells = assay type: cell-based, human
2D and 3D cell cultures = experiment: MYXV replication in 2D and 3D cell cultures; assay type: cell-based
PANC-1 cells [3] = assay type: cell-based, human; remark: listed apart in the source

O=C(/C=C\n1cnc(-c2cc(C(F)(F)F)cc(C(F)(F)F)c2)n1)NNc1cnccn1 [selinexor]
significantly enhanced: MYXV gene expression and replication (PANC-1 cells [1]) | MYXV replication [2] | MYXV gene expression and replication (Colo205 cells) | MYXV gene expression and replication (MDA-MB435 cells) | MYXV replication (2D and 3D cell cultures) | replication of vMyx-M11L-KO (progeny virus) (PANC-1 cells [3]) | replication of vMyx-hLIGHT (progeny virus) (PANC-1 cells [3])
